Key:
PDGF-Rβ [1] = target: T1, PDGF-Rβ (Homo sapiens, UniProt P09619); assay: Cellular Receptor Tyrosine Kinase Assay (autophosphorylation, sandwich ELISA); type: cell-based; parameters: host or cells: unnamed cell line; details: ligand-induced receptor autophosphorylation in cells
Experimental: (§1) The effect of thiazole derivatives was tested by determining the inhibition of different receptor tyrosine kinases (RTKs) in various cell lines which expressed the following growth factor receptors: EGF-R, PDGF-R, TIE2, IGF-1R, EPHB4, and VEGF-R2. Receptor autophosphorylation was induced by specific ligands for each receptor. […] Test compounds were applied to cells prior to stimulation. Cells were lysed using a standard lysis buffer preserving the distinct phosphoprotein levels. RTK-phosphorylation was quantified via sandwich ELISA using receptor-specific capture antibodies and a phosphotyrosine antibody.
(§2) Sigmoidal inhibitor curves based on relative inhibition compared with phosphorylation levels under high control conditions were generated which allowed the determination of IC50 values for each test compound.
Target sequence in this assay (P09619 33-1106, species assumed): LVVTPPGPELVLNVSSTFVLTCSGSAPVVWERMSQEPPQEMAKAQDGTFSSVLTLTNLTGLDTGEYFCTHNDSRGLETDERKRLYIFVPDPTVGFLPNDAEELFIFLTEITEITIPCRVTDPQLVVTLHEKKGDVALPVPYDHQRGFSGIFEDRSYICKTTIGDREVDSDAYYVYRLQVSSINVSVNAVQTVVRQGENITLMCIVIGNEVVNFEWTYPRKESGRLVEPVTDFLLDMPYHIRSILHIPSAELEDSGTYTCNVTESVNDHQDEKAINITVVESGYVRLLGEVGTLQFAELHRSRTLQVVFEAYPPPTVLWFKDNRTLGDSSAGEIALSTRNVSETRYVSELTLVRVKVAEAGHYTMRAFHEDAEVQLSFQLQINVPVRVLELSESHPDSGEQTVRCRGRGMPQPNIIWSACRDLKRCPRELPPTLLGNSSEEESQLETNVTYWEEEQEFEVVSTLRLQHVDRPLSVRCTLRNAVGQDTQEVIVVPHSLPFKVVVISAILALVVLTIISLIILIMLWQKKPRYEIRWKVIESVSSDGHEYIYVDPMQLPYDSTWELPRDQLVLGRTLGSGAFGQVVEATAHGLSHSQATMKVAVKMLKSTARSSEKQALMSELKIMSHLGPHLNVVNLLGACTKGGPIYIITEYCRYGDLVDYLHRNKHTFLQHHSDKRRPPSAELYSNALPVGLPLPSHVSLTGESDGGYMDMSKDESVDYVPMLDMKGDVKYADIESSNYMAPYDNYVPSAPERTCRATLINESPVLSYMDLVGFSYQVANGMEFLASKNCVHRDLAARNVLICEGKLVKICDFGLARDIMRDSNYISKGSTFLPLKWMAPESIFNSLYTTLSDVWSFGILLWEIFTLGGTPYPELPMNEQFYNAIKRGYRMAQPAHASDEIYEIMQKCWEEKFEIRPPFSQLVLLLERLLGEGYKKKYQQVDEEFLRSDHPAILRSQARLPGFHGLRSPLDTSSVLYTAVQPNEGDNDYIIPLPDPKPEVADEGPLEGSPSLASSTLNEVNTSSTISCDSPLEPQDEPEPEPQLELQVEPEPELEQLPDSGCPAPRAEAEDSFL

VEGF-R2 [2] = target: T2, VEGF-R2 (Homo sapiens, UniProt P35968); assay: as above; type: cell-based; parameters: host or cells: unnamed cell line; details: ligand-induced receptor autophosphorylation in cells
Experimental: as §1, §2

Aurora B [3] = target: T3, Aurora B (Homo sapiens, UniProt Q96GD4); assay: Cellular Aurora-B Kinase Assay (endoreduplication of genomic DNA, PI/FACS); type: cell-based; parameters: endogenous in cells; host or cells: HT29 colon carcinoma cells; details: HT29 colon-carcinoma cells, 3 days treatment, EndoR-population
T3 sequence (Q96GD4 whole entry): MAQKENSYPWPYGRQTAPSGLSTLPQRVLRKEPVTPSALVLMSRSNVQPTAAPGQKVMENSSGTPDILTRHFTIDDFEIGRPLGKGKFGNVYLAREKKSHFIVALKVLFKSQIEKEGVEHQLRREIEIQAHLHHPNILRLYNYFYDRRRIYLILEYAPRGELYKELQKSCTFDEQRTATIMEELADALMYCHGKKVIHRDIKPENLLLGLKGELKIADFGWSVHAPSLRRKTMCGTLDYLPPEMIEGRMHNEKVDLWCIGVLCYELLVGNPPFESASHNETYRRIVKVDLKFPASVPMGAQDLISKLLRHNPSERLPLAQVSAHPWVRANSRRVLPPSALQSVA
Experimental: The effect of thiazole derivatives was tested in a cellular Aurora-B assay by measuring the effect of the test compounds on the endoreduplication (EndoR) of genomic DNA. Endoreduplication is detectable in cells as DNA-content higher then 4 n. Propidium Iodine (PI) was used to quantify the DNA content using a fluorescence activated cell sorter (FACS).
In the experiment, HT29 colon-carcinoma cells were treated with test compounds at different concentrations for 3 days. On day 5 cells were harvested and fixed in methanol. On day 6 cells were rehydrated and incubated with RNAse A and PI. Incorporated PI was detected by FACS measuring fluorescence emission at 650 nm upon excitation at 488 nm. For each compound concentration the percentage of EndoR-population as compared to the whole cell population was determined. For estimation of IC50 values of Aurora-B inhibition the percentages of EndoR-populations were plotted versus compound concentrations.

Aurora B [4] = target: T3, Aurora B; assay: In vitro protein kinase assay (radioisotopic 33P, FlashPlate); type: biochemical; parameters: made in house; host or cells: Sf9 insect cells (baculovirus); details: recombinant human kinase
Experimental: (§3) The effect of the thiazole derivatives was tested on recombinant, human protein kinases in in vitro protein kinase assays.
(§4) The protein kinases were expressed in Sf9 insect cells as human recombinant GST-fusion proteins or as His-tagged proteins by means of the baculovirus expression system.
(§5) The kinase activity was measured with a radioisotopic protein kinase assay by measuring the incorporation of ^33P-phosphate into proteins or peptide substrates. The assays were performed in FlashPlate™ microtiter scintillation plates and incorporation of ^33P-phosphate was determined with a microplate scintillation counter.

PDGF-Rβ [5] = target: T1, PDGF-Rβ; assay: as above; type: biochemical; parameters: made in house; host or cells: Sf9 insect cells (baculovirus); details: recombinant human kinase
Experimental: as §3, §4, §5
Target sequence in this assay (P09619 33-1106): as the sequence (P09619 33-1106, species assumed) above

VEGF-R2 [6] = target: T2, VEGF-R2; assay: as above; type: biochemical; parameters: made in house; host or cells: Sf9 insect cells (baculovirus); details: recombinant human kinase
Experimental: as §3, §4, §5

TIE2 = target: T4, TIE2 (Homo sapiens, UniProt Q02763); assay: as above; type: biochemical; details: recombinant human kinase
T4 construct: made in house; host or cells: Sf9 insect cells (baculovirus)
T4 sequence (Q02763 23-1124): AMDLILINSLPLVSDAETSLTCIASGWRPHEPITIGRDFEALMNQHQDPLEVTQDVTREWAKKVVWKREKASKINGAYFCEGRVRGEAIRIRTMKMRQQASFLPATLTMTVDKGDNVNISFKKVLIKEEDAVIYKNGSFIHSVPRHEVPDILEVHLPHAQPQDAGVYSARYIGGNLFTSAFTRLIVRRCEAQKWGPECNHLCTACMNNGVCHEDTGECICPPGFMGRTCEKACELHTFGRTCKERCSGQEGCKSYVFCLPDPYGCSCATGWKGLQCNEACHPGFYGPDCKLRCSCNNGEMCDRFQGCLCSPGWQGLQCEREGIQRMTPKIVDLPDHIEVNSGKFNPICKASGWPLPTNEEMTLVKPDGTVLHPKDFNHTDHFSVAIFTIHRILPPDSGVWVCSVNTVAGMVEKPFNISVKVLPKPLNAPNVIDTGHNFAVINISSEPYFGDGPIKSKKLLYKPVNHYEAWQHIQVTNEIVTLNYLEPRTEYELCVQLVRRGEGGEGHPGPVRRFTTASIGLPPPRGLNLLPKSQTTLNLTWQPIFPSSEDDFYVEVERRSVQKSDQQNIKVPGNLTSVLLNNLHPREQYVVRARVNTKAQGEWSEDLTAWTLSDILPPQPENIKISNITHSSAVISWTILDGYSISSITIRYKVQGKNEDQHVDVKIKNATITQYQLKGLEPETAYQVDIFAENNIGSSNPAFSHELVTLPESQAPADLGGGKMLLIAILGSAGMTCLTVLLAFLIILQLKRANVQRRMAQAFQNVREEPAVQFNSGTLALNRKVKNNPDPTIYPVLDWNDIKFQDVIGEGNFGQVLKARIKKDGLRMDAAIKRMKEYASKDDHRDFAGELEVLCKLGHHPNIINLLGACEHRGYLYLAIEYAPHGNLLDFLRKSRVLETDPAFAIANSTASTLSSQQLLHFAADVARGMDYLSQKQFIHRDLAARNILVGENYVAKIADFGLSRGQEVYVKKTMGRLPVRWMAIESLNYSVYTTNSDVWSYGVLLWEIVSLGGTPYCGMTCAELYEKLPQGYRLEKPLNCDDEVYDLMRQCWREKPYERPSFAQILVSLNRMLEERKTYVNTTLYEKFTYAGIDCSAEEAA
Experimental: as §3, §4, §5

Aurora A = target: T5, Aurora A (Homo sapiens, UniProt O14965); assay: as above; type: biochemical; details: recombinant human kinase
T5 construct: made in house; host or cells: Sf9 insect cells (baculovirus)
T5 sequence (O14965 1-403): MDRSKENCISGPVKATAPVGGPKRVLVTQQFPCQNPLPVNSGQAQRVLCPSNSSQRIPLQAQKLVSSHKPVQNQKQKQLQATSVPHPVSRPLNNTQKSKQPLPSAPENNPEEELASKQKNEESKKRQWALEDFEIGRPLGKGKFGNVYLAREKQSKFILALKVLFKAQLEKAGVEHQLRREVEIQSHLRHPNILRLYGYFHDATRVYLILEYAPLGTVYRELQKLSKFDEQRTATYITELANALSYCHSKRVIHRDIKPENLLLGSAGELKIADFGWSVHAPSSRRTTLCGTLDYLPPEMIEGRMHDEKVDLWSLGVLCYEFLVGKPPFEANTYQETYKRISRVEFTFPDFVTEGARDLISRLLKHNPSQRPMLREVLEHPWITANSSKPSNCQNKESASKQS
Experimental: as §3, §4, §5

VEGF-R3 = target: T6, VEGF-R3 (Homo sapiens, UniProt P35916); assay: as above; type: biochemical; details: recombinant human kinase
T6 construct: made in house; host or cells: Sf9 insect cells (baculovirus)
T6 sequence (P35916 25-1363): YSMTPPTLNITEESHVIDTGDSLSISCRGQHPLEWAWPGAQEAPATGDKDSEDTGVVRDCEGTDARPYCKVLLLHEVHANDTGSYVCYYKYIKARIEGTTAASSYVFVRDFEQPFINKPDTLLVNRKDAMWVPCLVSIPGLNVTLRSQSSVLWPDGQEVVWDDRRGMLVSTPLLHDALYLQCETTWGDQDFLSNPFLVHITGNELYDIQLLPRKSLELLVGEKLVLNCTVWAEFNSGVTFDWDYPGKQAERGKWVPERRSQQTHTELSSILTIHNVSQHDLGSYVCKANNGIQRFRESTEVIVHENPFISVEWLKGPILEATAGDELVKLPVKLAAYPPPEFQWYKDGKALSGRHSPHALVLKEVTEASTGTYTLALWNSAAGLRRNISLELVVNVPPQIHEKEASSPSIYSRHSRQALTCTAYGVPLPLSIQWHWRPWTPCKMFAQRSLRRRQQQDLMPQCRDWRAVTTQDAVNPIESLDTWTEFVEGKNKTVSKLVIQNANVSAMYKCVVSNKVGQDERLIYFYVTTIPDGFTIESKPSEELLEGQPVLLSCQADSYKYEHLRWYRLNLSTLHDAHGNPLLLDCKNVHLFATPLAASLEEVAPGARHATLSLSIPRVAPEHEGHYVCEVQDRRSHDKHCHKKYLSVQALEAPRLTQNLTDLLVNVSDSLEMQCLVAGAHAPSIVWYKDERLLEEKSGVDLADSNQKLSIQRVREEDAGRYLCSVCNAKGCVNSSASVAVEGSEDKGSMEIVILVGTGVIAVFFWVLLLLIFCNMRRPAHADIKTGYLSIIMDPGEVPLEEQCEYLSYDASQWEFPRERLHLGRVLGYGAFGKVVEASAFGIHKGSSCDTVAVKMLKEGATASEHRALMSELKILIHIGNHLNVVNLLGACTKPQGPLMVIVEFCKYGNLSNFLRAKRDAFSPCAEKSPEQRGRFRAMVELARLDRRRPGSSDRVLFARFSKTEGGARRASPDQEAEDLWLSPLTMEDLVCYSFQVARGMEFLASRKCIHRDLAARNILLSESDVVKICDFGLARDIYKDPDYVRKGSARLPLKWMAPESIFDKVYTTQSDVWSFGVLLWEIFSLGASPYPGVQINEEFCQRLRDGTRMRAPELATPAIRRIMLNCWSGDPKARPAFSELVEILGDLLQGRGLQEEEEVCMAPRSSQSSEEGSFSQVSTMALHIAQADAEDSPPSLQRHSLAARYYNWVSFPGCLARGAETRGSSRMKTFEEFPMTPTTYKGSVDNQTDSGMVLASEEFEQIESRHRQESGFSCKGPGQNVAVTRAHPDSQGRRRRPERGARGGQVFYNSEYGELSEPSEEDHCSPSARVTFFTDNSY
Experimental: as §3, §4, §5

FLT3 = target: T7, FLT3 (Homo sapiens, UniProt P36888); assay: as above; type: biochemical; details: recombinant human kinase
T7 construct: made in house; host or cells: Sf9 insect cells (baculovirus)
T7 sequence (P36888 27-993): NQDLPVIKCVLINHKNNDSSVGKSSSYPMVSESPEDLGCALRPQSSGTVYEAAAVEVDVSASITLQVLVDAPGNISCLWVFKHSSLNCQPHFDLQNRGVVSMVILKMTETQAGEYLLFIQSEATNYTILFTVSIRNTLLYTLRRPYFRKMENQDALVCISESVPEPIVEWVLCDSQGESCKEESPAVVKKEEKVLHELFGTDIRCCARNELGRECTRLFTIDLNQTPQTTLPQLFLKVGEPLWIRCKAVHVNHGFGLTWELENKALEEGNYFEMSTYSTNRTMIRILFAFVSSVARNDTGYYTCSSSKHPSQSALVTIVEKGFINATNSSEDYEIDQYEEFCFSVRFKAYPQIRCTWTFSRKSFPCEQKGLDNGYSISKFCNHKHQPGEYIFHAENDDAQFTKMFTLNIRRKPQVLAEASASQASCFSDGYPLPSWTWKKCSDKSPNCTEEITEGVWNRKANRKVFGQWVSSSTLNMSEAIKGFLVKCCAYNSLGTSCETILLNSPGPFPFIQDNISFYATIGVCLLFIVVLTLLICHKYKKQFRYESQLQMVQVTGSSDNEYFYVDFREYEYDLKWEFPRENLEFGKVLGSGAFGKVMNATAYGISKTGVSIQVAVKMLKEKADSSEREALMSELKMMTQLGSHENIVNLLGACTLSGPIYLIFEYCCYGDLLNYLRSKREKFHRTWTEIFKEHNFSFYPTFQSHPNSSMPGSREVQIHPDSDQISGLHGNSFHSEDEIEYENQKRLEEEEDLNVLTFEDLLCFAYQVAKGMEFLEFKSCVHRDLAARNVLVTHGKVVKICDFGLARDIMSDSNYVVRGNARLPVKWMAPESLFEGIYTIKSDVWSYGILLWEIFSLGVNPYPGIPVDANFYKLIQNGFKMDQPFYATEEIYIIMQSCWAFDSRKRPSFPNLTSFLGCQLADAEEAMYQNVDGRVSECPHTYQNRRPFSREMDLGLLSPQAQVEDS
Experimental: as §3, §4, §5

EGF-R = target: T8, EGF-R (Homo sapiens, UniProt P00533); assay: as above; type: biochemical; details: recombinant human kinase
T8 construct: made in house; host or cells: Sf9 insect cells (baculovirus)
T8 sequence (P00533 25-1210): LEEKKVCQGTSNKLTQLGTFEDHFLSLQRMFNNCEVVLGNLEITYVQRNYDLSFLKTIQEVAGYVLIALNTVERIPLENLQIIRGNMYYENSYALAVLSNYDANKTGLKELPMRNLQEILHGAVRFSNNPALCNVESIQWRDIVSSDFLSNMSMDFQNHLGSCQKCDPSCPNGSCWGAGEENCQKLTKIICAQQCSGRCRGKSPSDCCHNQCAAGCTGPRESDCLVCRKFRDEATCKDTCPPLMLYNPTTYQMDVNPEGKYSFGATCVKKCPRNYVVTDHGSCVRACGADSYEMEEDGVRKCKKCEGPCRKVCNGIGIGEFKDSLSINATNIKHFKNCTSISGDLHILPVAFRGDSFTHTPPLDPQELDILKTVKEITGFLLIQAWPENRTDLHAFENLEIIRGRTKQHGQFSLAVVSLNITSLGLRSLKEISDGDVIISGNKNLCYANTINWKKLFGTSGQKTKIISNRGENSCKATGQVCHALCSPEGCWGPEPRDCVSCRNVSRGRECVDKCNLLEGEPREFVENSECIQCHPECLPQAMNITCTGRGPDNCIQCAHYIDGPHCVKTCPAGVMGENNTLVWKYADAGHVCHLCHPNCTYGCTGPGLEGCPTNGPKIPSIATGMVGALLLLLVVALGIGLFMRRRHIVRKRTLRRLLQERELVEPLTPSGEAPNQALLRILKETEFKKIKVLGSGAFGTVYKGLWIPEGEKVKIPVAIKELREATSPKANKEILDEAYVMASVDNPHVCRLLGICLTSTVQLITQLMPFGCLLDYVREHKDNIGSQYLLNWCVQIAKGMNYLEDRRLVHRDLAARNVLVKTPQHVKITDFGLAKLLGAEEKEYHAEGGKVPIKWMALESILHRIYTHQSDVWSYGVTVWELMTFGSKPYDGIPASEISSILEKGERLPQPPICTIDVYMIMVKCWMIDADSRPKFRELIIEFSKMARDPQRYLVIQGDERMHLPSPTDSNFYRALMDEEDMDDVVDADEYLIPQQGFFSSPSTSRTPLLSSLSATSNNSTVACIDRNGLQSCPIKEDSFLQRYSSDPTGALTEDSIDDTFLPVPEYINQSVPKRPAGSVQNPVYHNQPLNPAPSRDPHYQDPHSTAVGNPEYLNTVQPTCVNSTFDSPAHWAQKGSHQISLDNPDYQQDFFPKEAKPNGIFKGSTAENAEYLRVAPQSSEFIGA
Experimental: as §3, §4, §5

VEGF-R1 = target: T9, VEGF-R1 (Homo sapiens, UniProt P17948); assay: as above; type: biochemical; details: recombinant human kinase
T9 construct: made in house; host or cells: Sf9 insect cells (baculovirus)
Experimental: as §3, §4, §5

IRAK4 = target: T10, IRAK4 (Homo sapiens, UniProt Q9NWZ3); assay: as above; type: biochemical; details: recombinant human kinase
T10 construct: made in house; host or cells: Sf9 insect cells (baculovirus)
T10 sequence (Q9NWZ3 1-460): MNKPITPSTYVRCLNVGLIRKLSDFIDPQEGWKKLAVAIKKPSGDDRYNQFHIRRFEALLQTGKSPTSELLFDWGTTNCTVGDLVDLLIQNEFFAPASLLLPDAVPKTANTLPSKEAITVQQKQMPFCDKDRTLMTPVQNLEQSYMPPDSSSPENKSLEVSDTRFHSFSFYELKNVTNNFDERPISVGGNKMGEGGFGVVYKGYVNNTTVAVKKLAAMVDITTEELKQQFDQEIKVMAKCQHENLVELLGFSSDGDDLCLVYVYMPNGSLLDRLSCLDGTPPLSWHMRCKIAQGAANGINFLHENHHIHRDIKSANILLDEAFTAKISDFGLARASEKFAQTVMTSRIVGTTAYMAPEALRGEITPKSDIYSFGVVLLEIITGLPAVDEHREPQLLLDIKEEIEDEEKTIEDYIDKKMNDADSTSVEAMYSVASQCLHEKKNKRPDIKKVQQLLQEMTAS
Experimental: as §3, §4, §5

TRK-A = target: T11, TRK-A (Homo sapiens, UniProt P04629); assay: as above; type: biochemical; details: recombinant human kinase
T11 construct: made in house; host or cells: Sf9 insect cells (baculovirus)
Experimental: as §3, §4, §5

LCK = target: T12, LCK (Homo sapiens, UniProt P06239); assay: as above; type: biochemical; details: recombinant human kinase
T12 construct: made in house; host or cells: Sf9 insect cells (baculovirus)
Experimental: as §3, §4, §5

RET = target: T13, RET (Homo sapiens, UniProt P07949); assay: as above; type: biochemical; details: recombinant human kinase
T13 construct: made in house; host or cells: Sf9 insect cells (baculovirus)
Experimental: as §3, §4, §5

PDGF-Rα = target: T14, PDGF-Rα (Homo sapiens, UniProt P16234); assay: as above; type: biochemical; details: recombinant human kinase
T14 construct: made in house; host or cells: Sf9 insect cells (baculovirus)
Experimental: as §3, §4, §5

KIT = target: T15, KIT (Homo sapiens, UniProt P10721); assay: as above; type: biochemical; details: recombinant human kinase
T15 construct: made in house; host or cells: Sf9 insect cells (baculovirus)
Experimental: as §3, §4, §5

Row | SMILES | IC50 (PDGF-Rβ [1]) [µM] | IC50 (VEGF-R2 [2]) [µM] | IC50 (Aurora B [3]) [µM] | IC50 (Aurora B [4]) [µM] | IC50 (PDGF-Rβ [5]) [µM] | IC50 (VEGF-R2 [6]) [µM] | IC50 (TIE2) [µM] | IC50 (Aurora A) [µM] | IC50 (VEGF-R3) [µM] | IC50 (FLT3) [µM] | IC50 (EGF-R) [µM] | IC50 (VEGF-R1) [µM] | IC50 (IRAK4) [µM] | IC50 (TRK-A) [µM] | IC50 (LCK) [µM] | IC50 (RET) [µM] | IC50 (PDGF-Rα) [µM] | IC50 (KIT) [µM]
1 | COc1cc2c(Nc3ncc(CCNC(=O)c4cccc(F)c4)s3)ncnc2cc1OCCCN1CCCC1 [Compound 1, 3-fluoro-N-(2-{2-[6-methoxy-7-(3-pyrrolidin-1-yl-propoxy)-quinazolin-4-ylamino]-thiazol-5-yl}-ethyl)-benzamide] | 1.1 | 14 | 1.1 | 0.36 | 11 | 2.6 | 0.9 | 0.1 | 2.2 | 5.5 |  |  |  |  |  |  |  | 
2 | COc1cc2c(Nc3ncc(CCNC(=O)c4ccccc4)s3)ncnc2cc1OCCCN1CCCC1 [Compound 2, N-(2-{2-[6-methoxy-7-(3-pyrrolidin-1-yl-propoxy)-quinazolin-4-ylamino]-thiazol-5-yl}-ethyl)-benzamide] |  |  |  | 0.62 | 15 | 2 | 1 | 0.16 | 2.8 | 11 | 20 |  |  |  |  |  |  | 
3 | COc1cc2ncnc(Nc3ncc(CCC(=O)Nc4cccc(F)c4)s3)c2cc1OC [Compound 7, 3-(2-(6,7-dimethoxyquinazolin-4-ylamino)thiazol-5-yl)-N-(3-fluorophenyl)propanamide] |  |  |  | 2.9 | 41 | 1.5 | 21 | 1.3 | 1.1 | 25 | 43 |  |  |  |  |  |  | 
4 | COC(=O)CCc1cnc(Nc2ncnc3cc(OC)c(OC)cc23)s1 [Compound 3, 3-[2-(6,7-dimethoxy-quinazolin-4-ylamino)-thiazol-5-yl]-propionic acid methyl ester] |  |  |  | 2.4 | 11 | 0.39 | 3.4 | 0.99 | 0.56 | 8.9 | 4 |  |  |  |  |  |  | 
5 | COc1cc2c(Nc3ncc(CCC(=O)Nc4ccc(F)cc4)s3)ncnc2cc1OCCCN1CCCC1 [Compound 9, N-(4-fluorophenyl)-3-(2-(6-methoxy-7-(3-(pyrrolidin-1-yl)propoxy)quinazolin-4-ylamino)thiazol-5-yl)propanamide] |  |  |  | 0.47 | 1.1 | 0.096 | 0.43 | 0.71 | 0.11 | 0.6 | 10 | 0.64 | 2.2 | 0.43 | 2.3 | 0.88 | 1 | 0.11
6 | COc1cc2c(Nc3ncc(CCC(=O)Nc4cccc(F)c4)s3)ncnc2cc1OCCCN1CCCC1 [Compound 5, N-(3-fluoro-phenyl)-3-{2-[6-methoxy-7-(3-pyrrolidin-1-yl-propoxy)-quinazolin-4-ylamino]-thiazol-5-yl}-propionamide] |  |  |  | 0.61 | 0.56 | 0.065 | 0.36 | 0.4 | 0.074 | 0.38 | 29 |  |  |  |  |  |  | 
7 | COc1cc2ncnc(Nc3ncc(CCC(=O)Nc4ccc(F)cc4)s3)c2cc1OC [Compound 8, 3-(2-(6,7-dimethoxyquinazolin-4-ylamino)thiazol-5-yl)-N-(4-fluorophenyl)propanamide] |  |  |  | 2.3 | 27 | 0.96 | 14 | 6 | 1.1 | 5.4 | 61 |  |  |  |  |  |  | 

Reference: US20070149523A1, “Thiazole Analogues and Uses Thereof” (priority 2005, published 2007)
